How the values were obtained:
[1] = xn = mol fraction of the nth substance listed; details: 298.15 K, 101 kPa, Liquid, Vibrating tube method
[2] = excess molar enthalpy (molar enthalpy of mixing); xn = mol fraction of the nth substance listed; details: 298.15 K, 101 kPa, Liquid

BrCCCBr [1,3-dibromopropane] + CCCCC(=O)OCC
Details	excess molar enthalpy [kcal/mol]	mass density [kg/m3]
[1], x2 = 0.0408	–	1905.88
[1], x2 = 0.0868	–	1836.07
[1], x2 = 0.1296	–	1773.38
[1], x2 = 0.177	–	1707.11
[1], x2 = 0.273	–	1579.99
[1], x2 = 0.325	–	1515.4
[1], x2 = 0.3803	–	1449.57
[1], x2 = 0.437	–	1385.12
[1], x2 = 0.5197	–	1296
[1], x2 = 0.6902	–	1128.6
[1], x2 = 0.7601	–	1065.64
[1], x2 = 0.8344	–	1001.96
[1], x2 = 0.9163	–	935.2
[2], x2 = 0.0175	0.00339	–
[2], x2 = 0.0382	0.00617	–
[2], x2 = 0.0611	0.00844	–
[2], x2 = 0.0911	0.00906	–
[2], x2 = 0.1259	0.00923	–
[2], x2 = 0.1645	0.00882	–
[2], x2 = 0.205	0.00784	–
[2], x2 = 0.247	0.00564	–
[2], x2 = 0.2878	0.00201	–
[2], x2 = 0.3293	-0.00241	–
[2], x2 = 0.3706	-0.00626	–
[2], x2 = 0.4062	-0.00927	–
[2], x2 = 0.4471	-0.0122	–
[2], x2 = 0.4985	-0.0154	–
[2], x2 = 0.5544	-0.017	–
[2], x2 = 0.6183	-0.0182	–
[2], x2 = 0.6862	-0.0188	–
[2], x2 = 0.7558	-0.0182	–
[2], x2 = 0.8251	-0.0156	–
[2], x2 = 0.8833	-0.0117	–
[2], x2 = 0.946	-0.00602	–

BrCCBr [1,2-dibromoethane] + CCOC(C)=O
Details	excess molar enthalpy [kcal/mol]	mass density [kg/m3]
[1], x2 = 0.0526	–	2091.79
[1], x2 = 0.1032	–	2019.48
[1], x2 = 0.1562	–	1945.11
[1], x2 = 0.2107	–	1869.55
[1], x2 = 0.2686	–	1790.65
[1], x2 = 0.4371	–	1568.65
[1], x2 = 0.4987	–	1490.07
[1], x2 = 0.6182	–	1341.18
[1], x2 = 0.6799	–	1266.02
[1], x2 = 0.7399	–	1194.16
[1], x2 = 0.8065	–	1115.57
[1], x2 = 0.8705	–	1041.22
[1], x2 = 0.9341	–	968.46
[2], x2 = 0.0529	0.00619	–
[2], x2 = 0.1142	0.00951	–
[2], x2 = 0.1754	0.0111	–
[2], x2 = 0.2376	0.0103	–
[2], x2 = 0.2976	0.00906	–
[2], x2 = 0.3548	0.00643	–
[2], x2 = 0.4086	0.0028	–
[2], x2 = 0.4579	-0.00112	–
[2], x2 = 0.5045	-0.00509	–
[2], x2 = 0.536	-0.00822	–
[2], x2 = 0.5453	-0.00877	–
[2], x2 = 0.5935	-0.0133	–
[2], x2 = 0.6556	-0.0167	–
[2], x2 = 0.7113	-0.0176	–
[2], x2 = 0.7914	-0.0161	–
[2], x2 = 0.8635	-0.0119	–
[2], x2 = 0.9367	-0.00602	–

BrCCCCCBr [1,5-dibromopentane] + CCOC(C)=O
Details	excess molar enthalpy [kcal/mol]	mass density [kg/m3]
[1], x2 = 0.0866	–	1642.62
[1], x2 = 0.1624	–	1595.36
[1], x2 = 0.2251	–	1554.67
[1], x2 = 0.2991	–	1504.62
[1], x2 = 0.3623	–	1460.11
[1], x2 = 0.4225	–	1416.21
[1], x2 = 0.5458	–	1321
[1], x2 = 0.6601	–	1225.85
[1], x2 = 0.765	–	1131.91
[1], x2 = 0.8611	–	1039.57
[1], x2 = 0.9561	–	941.92
[2], x2 = 0.0775	0.0259	–
[2], x2 = 0.1619	0.0431	–
[2], x2 = 0.2431	0.0561	–
[2], x2 = 0.3197	0.0639	–
[2], x2 = 0.3909	0.0676	–
[2], x2 = 0.4536	0.0674	–
[2], x2 = 0.5079	0.0658	–
[2], x2 = 0.5103	0.0652	–
[2], x2 = 0.5486	0.0622	–
[2], x2 = 0.5612	0.062	–
[2], x2 = 0.5934	0.0591	–
[2], x2 = 0.6025	0.0577	–
[2], x2 = 0.6413	0.053	–
[2], x2 = 0.6919	0.0458	–
[2], x2 = 0.7451	0.0375	–
[2], x2 = 0.7998	0.0284	–
[2], x2 = 0.8546	0.0198	–
[2], x2 = 0.9082	0.012	–
[2], x2 = 0.9563	0.00528	–

BrCCCCBr [1,4-dibromobutane] + CCOC=O
Details	excess molar enthalpy [kcal/mol]	mass density [kg/m3]
[1], x2 = 0.0952	–	1765.32
[1], x2 = 0.1744	–	1716.81
[1], x2 = 0.2604	–	1660.33
[1], x2 = 0.3295	–	1611.72
[1], x2 = 0.4012	–	1557.95
[1], x2 = 0.4668	–	1505.48
[1], x2 = 0.5355	–	1446.96
[1], x2 = 0.5888	–	1398.87
[1], x2 = 0.6436	–	1346.56
[1], x2 = 0.6981	–	1291.4
[1], x2 = 0.7934	–	1186.14
[1], x2 = 0.9238	–	1023.59
[1], x2 = 0.9623	–	970.42
[2], x2 = 0.0799	0.0549	–
[2], x2 = 0.1652	0.0897	–
[2], x2 = 0.2469	0.118	–
[2], x2 = 0.3246	0.135	–
[2], x2 = 0.397	0.145	–
[2], x2 = 0.4607	0.149	–
[2], x2 = 0.5109	0.147	–
[2], x2 = 0.5179	0.148	–
[2], x2 = 0.5525	0.145	–
[2], x2 = 0.5649	0.143	–
[2], x2 = 0.5973	0.14	–
[2], x2 = 0.6082	0.137	–
[2], x2 = 0.6459	0.131	–
[2], x2 = 0.6929	0.121	–
[2], x2 = 0.7514	0.103	–
[2], x2 = 0.8051	0.0847	–
[2], x2 = 0.8598	0.0615	–
[2], x2 = 0.9121	0.0378	–
[2], x2 = 0.9614	0.0142	–

From the NIST ThermoML archive (doi:10.1016/j.jct.2005.07.009)
